The text below walks through data of US9644181B2, “Cell preparation containing myocardium-committed cell” (RIKEN, priority 2012, dated 2017).

In experiment [1] the test system is adipose-tissue-derived multi-lineage/multi-potent progenitor cells (ADMPC). Kind of experiment: Induction of the expression of myocardium-committed-cell markers in ADMPC, concentration series (TaqMan PCR, GAPDH ratios). In kind it is cell-based, human. As to the method:
(§1) Adipose tissues were provided by subjects from whom informed consent had been obtained by suction surgery from subcutaneous tissues. Neither steroid agent nor TZD had been administered to any of the subjects. Adipose tissues were cut into small pieces. Next, digestion was performed for 1 hour with shaking in 0.067% collagenase (Roche applied science)-containing Hanks' Balanced Salt Solution (HBSS) in a water bath at 37° C. The digested products were filtered through a Cell Strainer (BD Bioscience) and then centrifuged at 800 g for 10 minutes. Erythrocytes were removed by a specific gravity method using Lymphoprep (d=1.077) (Nycomed). The thus obtained Stromal Vascular Fraction (cells) was seeded into DMEM containing 10% fetal calf serum (Life Technologies). Cells were cultured for 24 hours so that they would adhere. After washing, the resultant was treated with EDTA, and ADMPC were thereby obtained. Next, ADMPC were seeded on a human-fibronectin-coated dish in medium I: 60% DMEM-low glucose, 40% MCDB201, […], 1 nM dexamethasone, 100 μM ascorbic acid, and 5% FBS at a density of 10,000 cells/cm^2, passaged 3 to 5 times, and then used for experiments.
(§2) Total RNA was isolated from the thus obtained cells using an RNeasy mini kit (Qiagen) according to protocols recommended by the manufacturer. Total RNA (500 ng) was subjected to DNase treatment, and then cDNA was synthesized using Superscript III reverse transcriptase RNase H (-) (Life Technologies).
(§3) Subsequently, TaqMan Universal PCR Master Mix (Applied Biosystems) (10 μl) and TaqMan Gene Expression Assays (Applied Biosystems) (1 μl) were added to the thus prepared cDNA (9 μl). Real-time PCR was performed using an Applied Biosystems 7900 Fast Real-Time PCR system under the following conditions: denaturation at 95° C. for 10 minutes and 40 cycles of 95° C. for 15 seconds and 60° C. for 1 minute. TaqMan probes and assay IDs (available from GenBank/NCBI (U.S.A.)) used for Islet-1, Nkx2.5, GATA-4, α-CA, cardiac troponin I, MLC, MHC, and GAPDH are listed in Table 1 below.
ADMPC passaged 4 times by plate culture were detached and washed with TrypLE Select (Life Technologies; the same applies hereafter) and were suspended at a concentration of 1×10^5/mL in Knockout-DMEM (Life Technologies; […], Ltd. (Japan); the same applies hereafter) and 20% KSR (Knockout Serum Replacement; Life Technologies; the same applies hereafter). 10 mL of cells was seeded on an EZ-Sphere low-adhesion culture dish (diameter: 10 cm, AGC; the same applies hereafter), and then suspension culture was performed. After 24 hours, cells were collected, quantitative analysis of expression was performed by TaqMan PCR, and then GAPDH ratios were calculated.
A general note: Quantitative PCR measures a nucleic acid by following its amplification.

For experiment [2] the test system is unchanged. To be noted: FIG. 1. As to the method: as §1
Total RNA was isolated from the thus obtained cells using an RNeasy mini kit (Qiagen) according to protocols recommended by the manufacturer. […]

For experiment [3] the test system is unchanged. Kind of experiment: Comparison of the induction of the expression of various markers by spermine and DMSO. Format: cell-based, human. The protocol:
as §1, §2, §3
ADMPC passaged 4 times by plate culture were detached and washed with TrypLE Select (Life Technologies; the same applies hereafter) and were suspended at a concentration of 1×10^5/mL in Knockout-DMEM (Life Technologies; the same applies hereafter) supplemented with 0, 5, 25, 50, 100, 200, or 500 μM or 1 mM spermine (Wako Pure Chemical Industries, Ltd. (Japan); the same applies hereafter) and 20% KSR (Knockout Serum Replacement; Life Technologies; the same applies hereafter). 10 mL of cells was seeded on an EZ-Sphere low-adhesion culture dish (diameter: 10 cm, AGC; the same applies hereafter), and then suspension culture was performed. […]

With `NCCCNCCCCNCCCN` [Spermine, spermine], the “expression of isl-1, nkx2.5, GATA-4, α-CA, cardiac troponin I and MHC” value in experiment [1] (spermine 0, 5, 25, 50, 100, 200, 500 μM or 1 mM, suspension culture 24 hours) is reported as “expression was confirmed”. Also, in experiment [1] (spermine series 0-1 mM, 24 hours), the “concentration at which all markers exhibited the highest expression levels” value is 100 µM. Also, in experiment [2] (100 μM spermine), the “effect of presence or absence of growth factors (EGF, bFGF) on the expression levels” value was “did not significantly affect”. Besides, the “expression of isl-1, nkx2.5, GATA-4, α-CA, cardiac troponin I, MHC and MLC” value in experiment [2] (100 μM, 24, 72 and 120 hours) is recorded as “Expression was confirmed”. The “expression levels of all markers, treatment with spermine compared with treatment with DMSO” value in experiment [3] (100 μM spermine 24, 72, 120 hours vs 0.1% DMSO 48 hours) is on record as “several to several hundred times greater”. In experiment [3] (100 μM, 1 day culture), the “Cardiac troponin I/DMSO ratio” value stood at 7.91, the “Cardiac α-actin/DMSO ratio” value worked out at 192.84, the GATA4/DMSO ratio came out at 3.75 and the Isl1/DMSO ratio was 6.79. For the same molecule, in experiment [3] (100 μM, 1 day culture), the MHC/DMSO ratio is reported as 2.31 × 10^−6, the MLC/DMSO ratio stood at 0.67 and the Nkx2.5/DMSO ratio came out at 3.58. Besides, in experiment [3] (100 μM, 3 days culture), the “Cardiac troponin I/DMSO ratio” value is 25.16, the “Cardiac α-actin/DMSO ratio” value is reported as 169.75, the GATA4/DMSO ratio is recorded as 8.19 and the Isl1/DMSO ratio is 10.44. In experiment [3] (100 μM, 3 days culture), the MHC/DMSO ratio is given as 3.74 × 10^−5, the MLC/DMSO ratio is on record as 0.88 and the Nkx2.5/DMSO ratio is given as 5.19. In experiment [3] (100 μM, 5 days culture), the “Cardiac troponin I/DMSO ratio” value is recorded as 11.87, the “Cardiac α-actin/DMSO ratio” value was 42.85, the GATA4/DMSO ratio stood at 12.15 and the Isl1/DMSO ratio turned out to be 3.49. In experiment [3] (100 μM, 5 days culture), the MHC/DMSO ratio is given as 7.67 × 10^−6, the MLC/DMSO ratio is 0.45 and the Nkx2.5/DMSO ratio stood at 7.47.
For `NCCCCNCCCN` [spermidine], the “expression of isl-1, nkx2.5 and GATA-4” value in experiment [1] (spermidine 0, 5, 25, 50, 100, 200, 500 μM or 1 mM, suspension culture 24 hours) is reported as “expression was confirmed”. In addition, the “concentration at which all markers (isl-1, nkx2.5, GATA-4) exhibited the highest expression levels” value in experiment [1] (spermidine series 0-1 mM, 24 hours) turned out to be 200 µM.
Consider `C[S+](C)[O-]` [DMSO], for which, in experiment [3] (0.1% in medium, 48 hours), the “Cardiac troponin I/DMSO ratio” value came out at 1, the “Cardiac α-actin/DMSO ratio” value is given as 1, the GATA4/DMSO ratio worked out at 1 and the Isl1/DMSO ratio came out at 1. In experiment [3] (0.1% in medium, 48 hours), the MHC/DMSO ratio result is “Not detected”, the MLC/DMSO ratio is given as 1 and the Nkx2.5/DMSO ratio was 1.
